Results on eleven compounds are retold here after PubChem BioAssay (NCI).

Where “and” joins values, the source holds several entries; their conditions need not be identical. Equal values may be shown once.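 Five concentrations, 48 hours, 96-well plates. Here, GI50 denotes the concentration required for 50% inhibition of growth. TGI: total growth inhibition.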 A value given as a limit tells only on which side of the number the result lay.

Test systems include BT-549 breast; COLO 205 colon; HCT-116 colon; HOP-92 NSCLC; NCI-H522 lung; OVCAR-8 ovarian; PC-3 prostate; SR leukemia.
Holding throughout (test): NCI-60 cell line screen, 48 h

Turning to `CON=C1C[C@]2(C[C@@H]3C[C@@H](C/C=C(\C)C[C@@H](C)/C=C/C=C4\CO[C@@H]5[C@H](O)C(C)=C[C@@H](C(=O)O3)[C@]45O)O2)O[C@H](/C(C)=C/C(C)C)[C@H]1C`, the GI50 is 18 µM in the test on BT-549 breast; 13.7 µM in the test with COLO 205 colon; 5.44 µM with HCT-116 colon; 1.99 µM in the test with HOP-92 NSCLC; 12 µM in the test on NCI-H522 lung; 16.3 µM in the test on OVCAR-8 ovarian. Moreover, the GI50 is 2.63 µM in the test on PC-3 prostate and 3.91 µM in the test on SR leukemia. In addition, the TGI in the test on BT-549 breast amounted to 33.4 µM; in the test on COLO 205 colon, 28.5 µM; in the test with HCT-116 colon, 19 µM; in the test with HOP-92 NSCLC, 11.8 µM; in the test with NCI-H522 lung, 26.1 µM; in the test with OVCAR-8 ovarian it was 39.1 µM. In addition, the TGI with PC-3 prostate was 11.2 µM; in the test on SR leukemia, 40.9 µM.
Regarding `O=C(Nc1ccc(Oc2ccc(NC(=O)Nc3ccccc3Cl)cc2)cc1)Nc1ccccc1Cl`, the GI50 was 5.06 µM in the test on BT-549 breast; 15.7 µM in the test on COLO 205 colon; 1.59 µM in the test on HCT-116 colon; 1.34 µM with HOP-92 NSCLC; 7.91 µM with NCI-H522 lung; 6.83 µM with OVCAR-8 ovarian. Also, the GI50 with PC-3 prostate was 2.11 µM; with SR leukemia, 0.453 µM. In addition, the TGI was 25 µM with BT-549 breast; greater than 100 µM in the test on COLO 205 colon; greater than 100 µM in the test with HCT-116 colon; 9.53 µM with HOP-92 NSCLC; 42.6 µM with NCI-H522 lung; 23.6 µM with OVCAR-8 ovarian. The same compound yielded a TGI in the test with SR leukemia of 13.3 µM.
For the compound `CC(=O)NC(CS)C(=O)O` (stereo unspecified), the TGI in the test on BT-549 breast was greater than 100 µM; in the test on COLO 205 colon, greater than 100 µM; with HCT-116 colon, > 100 µM and 52800 µM; in the test on NCI-H522 lung, > 100 µM and 46300 µM; with OVCAR-8 ovarian, > 100 µM and 88800 µM; with PC-3 prostate, greater than 100 µM. In the test on SR leukemia, this compound returned a TGI greater than 100 µM. Moreover, the GI50 in the test with COLO 205 colon, with HCT-116 colon, in the test with NCI-H522 lung, in the test on OVCAR-8 ovarian, with PC-3 prostate and in the test with SR leukemia was greater than 100 µM in each case.
On to `COc1ccc(CN2C(=O)/C(=C\C(=O)c3ccc(OCCN4CCCC4)cc3)c3ccccc32)cc1`, for which the GI50 in the test on BT-549 breast was 10.6 µM; in the test with COLO 205 colon, 2.28 µM; in the test with HOP-92 NSCLC it was 2.09 µM; with OVCAR-8 ovarian, 2.66 µM; in the test on PC-3 prostate, 2.35 µM. Further, the TGI with BT-549 breast was 23.3 µM; in the test on COLO 205 colon it was 5.52 µM; in the test on HOP-92 NSCLC, 4.9 µM; in the test on OVCAR-8 ovarian, 5.78 µM; in the test on PC-3 prostate, 4.83 µM.
Turning to `O=c1c2ccccc2nc2n1CCc1c-2[nH]c2cc3c(cc12)OCO3`, the TGI in the test with COLO 205 colon, in the test on HCT-116 colon, in the test on NCI-H522 lung, in the test with OVCAR-8 ovarian, with PC-3 prostate and in the test with SR leukemia was greater than 25 µM in each case.
For `Cc1cc2c(C(=O)NCC#N)cccc2n1-c1nc2c(c(NCc3ccccc3)n1)CCCC2`, the GI50 is 0.251 µM in the test with BT-549 breast; 0.201 µM in the test on COLO 205 colon; 0.185 µM in the test with HCT-116 colon; 0.242 µM in the test on NCI-H522 lung; 0.34 µM in the test on OVCAR-8 ovarian; 0.257 µM in the test on SR leukemia. For the same compound, the TGI was 0.7 µM in the test with BT-549 breast; 0.404 µM in the test with COLO 205 colon; 0.637 µM with HCT-116 colon; 0.842 µM with NCI-H522 lung; 1.98 µM in the test with OVCAR-8 ovarian; 10.3 µM in the test with SR leukemia.
Regarding `C/C=C(\C)c1cc(=O)c2c(C)cc3c(c2o1)C(OC)(OC(C)=O)c1c(O)c(C2CC(C)(N(C)C)C(OC(C)=O)C(C)O2)cc(C2CC(N(C)C)C(OC(C)=O)C(C)O2)c1C3=O` (stereo unspecified), the TGI with BT-549 breast is 7.47 µM; in the test with HCT-116 colon, greater than 34.1 µM; with HOP-92 NSCLC it was 6.91 µM; with PC-3 prostate, greater than 100 µM; in the test with SR leukemia it was 0.842 µM.
In the case of `O=c1c2cccc(F)c2sc2c(NCCCNCCO)nc3ccccc3c12`, the GI50 with BT-549 breast was 6.16 µM; in the test on COLO 205 colon, 1.61 µM; in the test with HCT-116 colon, 1.39 µM; in the test on HOP-92 NSCLC, 1.42 µM; in the test on NCI-H522 lung, 1.76 µM; in the test on PC-3 prostate, 1.66 µM. For the same compound, the GI50 with SR leukemia is 0.984 µM. Besides, the TGI with BT-549 breast amounted to 19.8 µM; with COLO 205 colon it was 3.96 µM; in the test with HCT-116 colon, 2.78 µM; in the test on HOP-92 NSCLC it was 5.15 µM; in the test on NCI-H522 lung, 3.69 µM; in the test with PC-3 prostate, 3.31 µM. This compound also came in with a TGI with SR leukemia of 4.85 µM.
As to `CN(C)c1ccc(/C=C(\C#N)c2ccccc2)cc1`, the GI50 with BT-549 breast was 0.121 µM and 0.794 µM and 0.621 µM; with COLO 205 colon it was 0.384 µM and 0.42 µM and 0.353 µM; in the test on HCT-116 colon, 0.384 µM and 0.441 µM and 0.414 µM; in the test on NCI-H522 lung it was 0.369 µM and 0.43 µM and 0.681 µM; with OVCAR-8 ovarian, 0.61 µM and 2.52 µM and 2.65 µM; in the test on PC-3 prostate, 0.272 µM and 1.92 µM and 0.956 µM. For the same compound, in the test with SR leukemia, the GI50 was 0.0866 µM and 0.308 µM and 0.255 µM. For the same compound, the TGI with COLO 205 colon was 2.32 µM and 5.35 µM and 2.76 µM; with HCT-116 colon, > 60.6 µM and > 100 µM and 29.6 µM; in the test with OVCAR-8 ovarian, greater than 100 µM; in the test on PC-3 prostate, greater than 100 µM; in the test with SR leukemia, 19 µM and 37.6 µM.
Consider `CN1CCN(Cc2ccc(NC(=O)c3cncc(C#Cc4c(N)ncc5c(F)cccc45)c3)cc2C(F)(F)F)CC1`, for which the GI50 in the test with BT-549 breast is 1.64 µM; in the test on COLO 205 colon, 0.638 µM; in the test with HCT-116 colon, 0.517 µM; in the test on HOP-92 NSCLC it was 0.135 µM; in the test with NCI-H522 lung it was 0.75 µM; with OVCAR-8 ovarian, 0.988 µM. For the same compound, in the test on PC-3 prostate, the GI50 is 0.787 µM. For the same compound, the TGI was found to be 4.32 µM in the test on BT-549 breast; 1.42 µM in the test with COLO 205 colon; 1.2 µM in the test on HCT-116 colon; 0.858 µM with HOP-92 NSCLC; 1.66 µM with NCI-H522 lung; 2.24 µM with OVCAR-8 ovarian. In the test with PC-3 prostate, the TGI worked out at 1.6 µM.
`Cc1cc(O[C@@H]2O[C@@H](C)[C@H](O)[C@@H](O)[C@H]2O)c2c3c(c(O[C@@H]4O[C@@H](C)[C@H](O)[C@@H](O)[C@H]4O)cc2c1)C(=O)c1c(O)cccc1C3=O`: the GI50 in the test on BT-549 breast, in the test on COLO 205 colon, in the test on HCT-116 colon, with HOP-92 NSCLC, in the test on OVCAR-8 ovarian and with PC-3 prostate was greater than 30 µM in each case. The GI50 in the test on SR leukemia is greater than 30 µM. The TGI in the test on BT-549 breast, with COLO 205 colon, in the test on HCT-116 colon, in the test on HOP-92 NSCLC, in the test on OVCAR-8 ovarian and in the test on PC-3 prostate was greater than 30 µM throughout. The compound further yielded a TGI in the test with SR leukemia greater than 30 µM.
